Test results from the NIST ThermoML archive (doi:10.1016/j.jct.2007.11.009).

Details: Liquid, Vibrating tube method

c1ccccc1 [benzene]
mass density [kg/m3]
Details	298.15 K	308.15 K	318.15 K	328.15 K
100 kPa	873.5	862.9	852.3	841.5
2130 kPa	875.1	864.7	854.2	843.6
4150 kPa	876.7	866.4	856.1	845.6
6180 kPa	878.4	868.2	857.9	847.5
8210 kPa	879.9	869.9	859.7	849.5
10230 kPa	881.5	871.6	861.5	851.3
11250 kPa	882.3	872.4	862.4	852.3
12260 kPa	883.1	873.2	863.2	853.2
14290 kPa	884.6	874.8	865	855
16310 kPa	886.1	876.4	866.6	856.8
18340 kPa	887.6	878	868.3	858.6
20370 kPa	889.1	879.5	869.9	860.3
22390 kPa	890.5	881.1	871.6	862
24420 kPa	892	882.6	873.2	863.7
26450 kPa	893.4	884	874.7	865.3
28470 kPa	894.7	885.5	876.2	866.9
29490 kPa	895.4	886.2	877	867.8
30500 kPa	896.1	886.9	877.8	868.6
32530 kPa	897.5	888.4	879.2	870.1
34550 kPa	898.8	889.7	880.7	871.7
36580 kPa	900.1	891.1	882.1	873.1
38600 kPa	901.4	892.5	883.6	874.7
39620 kPa	902	893.2	884.3	875.4

CCCCCCCC [octane]
mass density [kg/m3]
Details	298.15 K	308.15 K	318.15 K	328.15 K
100 kPa	698.7	690.8	682.8	674.5
2130 kPa	700.4	692.6	684.7	676.6
4150 kPa	702.2	694.4	686.7	678.7
6180 kPa	703.8	696.2	688.6	680.7
8210 kPa	705.4	698	690.4	682.6
10230 kPa	707	699.7	692.2	684.6
11250 kPa	707.8	700.5	693.1	685.5
12260 kPa	708.6	701.3	694	686.4
14290 kPa	710.1	703	695.7	688.3
16310 kPa	711.7	704.5	697.4	690.1
18340 kPa	713.1	706.1	699.1	691.8
20370 kPa	714.6	707.6	700.7	693.6
22390 kPa	715.9	709.1	702.3	695.2
24420 kPa	717.4	710.6	703.9	696.9
26450 kPa	718.8	712	705.4	698.5
28470 kPa	720.1	713.4	706.9	700
29490 kPa	720.8	714.1	707.6	700.8
30500 kPa	721.4	714.8	708.3	701.6
32530 kPa	722.7	716.2	709.7	703
34550 kPa	724	717.5	711.2	704.5
36580 kPa	725.3	718.8	712.5	706
38600 kPa	726.5	720.2	713.9	707.4
39620 kPa	727.1	720.8	714.6	708.1
